Experimental data reported in patent publication US20180263992A1, “TREATMENT OF NEURODEGENERATIVE DISEASES” (BENEVOLENTAI BIO LIMITED, priority 2015, published 2018).
One block for each molecule: values may come before it.

What was measured:
[1] = Entry of Gefitinib into the brain with prior P-gp inhibitor; assay type: in vivo, C57BL/6 mice
[2] = system: ALS; conditions: cited from earlier work
[3] = multi-dose animal studies; cited from earlier work
[4] = system: SOD1G93A mouse model of ALS; conditions: cited from earlier work
[5] = in vivo; cited from earlier work
[6] = system: human cancer cells; conditions: cited from earlier work
[7] = system: murine Hb9-GFP+ motor neurons co-cultured with ALS patient iAstrocytes; experiment: ALS patient iAstrocyte / mouse Hb9-GFP+ motor neuron co-culture, motor neuron survival; assay type: cell-based, human iAstrocytes, mouse motor neurons; conditions: iAstrocytes of three ALS patients pre-treated 24 h; survival at 72 h vs 24 h, normalised to DMSO control
[8] = target: P-glycoprotein (P-gp) (Homo sapiens, UniProt P08183); conditions: Togashi et al. 2012; cited from earlier work
[9] = in vivo; cited from earlier work; remark: listed apart in the source
[10] = phase I trials; cited from earlier work

Sequence of P-glycoprotein (P-gp) (P08183 whole entry): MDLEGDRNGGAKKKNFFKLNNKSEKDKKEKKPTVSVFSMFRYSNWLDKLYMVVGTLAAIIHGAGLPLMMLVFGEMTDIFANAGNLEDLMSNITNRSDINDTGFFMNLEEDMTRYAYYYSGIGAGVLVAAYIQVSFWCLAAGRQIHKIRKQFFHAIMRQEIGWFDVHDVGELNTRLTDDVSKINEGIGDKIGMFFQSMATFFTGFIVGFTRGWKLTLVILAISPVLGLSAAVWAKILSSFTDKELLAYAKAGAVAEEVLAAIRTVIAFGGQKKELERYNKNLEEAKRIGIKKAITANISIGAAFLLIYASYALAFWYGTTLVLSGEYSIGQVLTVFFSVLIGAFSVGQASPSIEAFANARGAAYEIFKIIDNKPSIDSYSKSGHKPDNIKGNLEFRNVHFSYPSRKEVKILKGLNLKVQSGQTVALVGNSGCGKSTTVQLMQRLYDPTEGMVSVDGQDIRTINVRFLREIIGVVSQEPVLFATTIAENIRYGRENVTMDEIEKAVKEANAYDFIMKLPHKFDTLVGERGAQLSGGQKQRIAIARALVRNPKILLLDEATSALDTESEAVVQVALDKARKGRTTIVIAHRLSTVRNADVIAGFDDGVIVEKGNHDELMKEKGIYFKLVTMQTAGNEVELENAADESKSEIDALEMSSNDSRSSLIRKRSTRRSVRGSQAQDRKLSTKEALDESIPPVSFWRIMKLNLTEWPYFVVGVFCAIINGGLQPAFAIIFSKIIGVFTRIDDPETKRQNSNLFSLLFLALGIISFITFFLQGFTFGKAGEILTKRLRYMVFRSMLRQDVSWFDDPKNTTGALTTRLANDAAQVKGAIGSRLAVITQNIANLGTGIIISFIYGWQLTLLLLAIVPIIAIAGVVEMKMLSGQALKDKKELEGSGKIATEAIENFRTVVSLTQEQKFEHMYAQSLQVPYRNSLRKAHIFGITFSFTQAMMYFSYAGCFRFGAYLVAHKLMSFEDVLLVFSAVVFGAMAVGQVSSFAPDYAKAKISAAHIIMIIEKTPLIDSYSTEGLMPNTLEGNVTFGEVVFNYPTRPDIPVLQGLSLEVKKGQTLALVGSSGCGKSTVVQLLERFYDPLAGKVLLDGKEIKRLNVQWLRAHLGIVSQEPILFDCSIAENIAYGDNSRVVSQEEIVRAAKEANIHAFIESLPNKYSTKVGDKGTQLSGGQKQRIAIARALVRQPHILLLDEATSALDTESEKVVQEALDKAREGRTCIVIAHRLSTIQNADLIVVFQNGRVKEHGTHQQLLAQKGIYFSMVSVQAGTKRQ

CNS penetration of Gefitinib ([1]; Elacridar 100 mg/kg po before Gefitinib 30 mg/kg po, 2 h post dose): significantly increased
CNS penetration of Gefitinib ([1]; Elacridar 100 mg/kg po before Gefitinib 100 mg/kg po, 2 h post dose): significantly increased
SMILES: COc1cc2c(cc1OC)CN(CCc1ccc(NC(=O)c3cccc4c(=O)c5cccc(OC)c5[nH]c34)cc1)CC2 [Elacridar]

CNS penetration of Gefitinib ([1]; Everolimus 10 mg/kg ip): did not appear to have any effect
plasma exposure of Gefitinib ([1]; Everolimus 10 mg/kg ip): increased
SMILES: CO[C@H]1C[C@@H]2CC[C@@H](C)[C@@](O)(O2)C(=O)C(=O)N2CCCC[C@H]2C(=O)O[C@H]([C@H](C)C[C@@H]2CC[C@@H](OCCO)[C@H](OC)C2)CC(=O)[C@H](C)/C=C(\C)[C@@H](O)[C@@H](OC)C(=O)[C@H](C)C[C@H](C)/C=C/C=C/C=C/1C [Everolimus]

SMILES: Nc1nc2ccc(OC(F)(F)F)cc2s1 [Riluzole]
prolongs life ([2]; ALS): 2-3 months
relief of symptoms ([2]; ALS): does not relieve symptoms
undesirable side effects ([2]; in vivo): nausea and fatigue

SMILES: C=CC(=O)Nc1cc2c(Nc3ccc(F)c(Cl)c3)ncnc2cc1OCCCN1CCOCC1 [canertinib]
toxicity [3]: minimal toxicity

SMILES: C#Cc1cccc(Nc2ncnc3cc(OCCOC)c(OCCOC)cc23)c1 [erlotinib]
lifespan [4]: failed to extend lifespan
modulation of markers for astrocytes and microglia [4]: did not correlate with a modulation of markers for astrocytes and microglia
penetration into the central nervous system [4]: penetrated into the central nervous system
protection of motor synapses [4]: did not protect motor synapses
symptom delay (readouts of disease onset and progression) [4]: modest yet statistically significant symptom delay
undesirable side effects [5]: skin irritation and diarrhea
cell-cycle progression [6]: blocks cell-cycle progression in the G1 phase
concentration inhibiting EGF-dependent cell proliferation [6]: nanomolar concentrations

SMILES: COc1cc2ncnc(Nc3ccc(F)c(Cl)c3)c2cc1OCCCN1CCOCC1 [gefitinib, N-(3-chloro-4-fluoro-phenyl)-7-methoxy-6-(3-morpholin-4-ylpropoxy)quinazolin-4-amine]
motor neuron survival [7]: dose-dependent increase in motor neuron survival
P-glycoprotein (P-gp) substrate status [8]: substrate
biological half-life [9]: 28 hours
maximal tolerated dosage [10]: 700 mg/day
